≈ marks a conversion by molar mass, not a printed value. Entries after “also recorded” stand apart in the source; their conditions may differ. Like-named read-outs stand apart in the source and are kept apart here.
Legend:
MRSA cells = assay: light microscopy after Gram staining; format: cell-based, Staphylococcus aureus; settings: for coloration upon Gram staining: Example 1; for cells Gram-stained purple: Example 5, MRSA cells grown in presence of the substance
Source text: (§1) In fact, only small isolated colonies of surviving cells can be found, all of which appear perfectly normal in size, shape, smoothness, and clustering behavior. […] Pulse radiolabeling experiments indicate that the lactam of FIG. 1D blocks the bacterial uptake of ^3H-uridine and ^3H-leucine at low (MIC) levels (Lim, D. V. et al. Microbiology, 1977, 33:328; Champney, W. S. and C. G. Tober Antimicrob. Agents and Chemother., 2000, 44:1413).
(FIGS. 14A-14C) S. aureus is a Gram-positive microorganism, and thus reacts with Gram stain to produce a purple coloration due to binding of the stain to the peptidoglycan. 100% of MRSA cells grown either in the absence or presence of the lactam of FIG. 11F take on a purple color when Gram stained (top and center images, next page). In contrast, for MRSA cells treated with penicillin G or vancomycin (cell wall synthesis inhibitors), only about 30% of the cells are Gram-stained purple, with the remainder of the cells appearing pink (bottom image, next page) due to morphologically altered walls. This is strong evidence that the N-methylthio lactams are not affecting late stage events in cell wall biosynthesis.

[1] = system: cultures of S. aureus and MRSA; assay: electron microscopy of cell morphology; format: cell-based, Staphylococcus aureus; settings: for cell morphology: Example 1, electron microscopy, high magnification
Source text: The structure-bioactivity patterns observed for these N-thiolated lactams are highly atypical for a β-lactam antibiotic. The compounds are lipohilic and devoid of the typical acidic ring functionality required for recognition by the penicillin binding proteins. The implication that the lactams set forth in FIGS. 1A-1I are not acting in the same manner or on the same enzymes as the traditional β-lactam drugs is supported by electron microscopy experiments, which confirm that cell morphology is unaffected by the lactam of FIG. 1D (Greenwood, D. et al. Science, 1969, 163:1076).
as §1
Light microscopy and scanning electron microscopy experiments have enabled us to look for cell wall damage in cultures of S. aureus and MRSA grown in the presence of N-methylthio lactam (FIG. 11F) over a range of different concentrations and cell growth conditions. […] Those cells that survive the treatment appear normal (coccal) and fully mature.

MRSA USF658 = assay: Kirby-Bauer agar disk diffusion; format: cell-based, Staphylococcus aureus; design: Kirby-Bauer Disc Diffusion Test Results: unit not given here; settings: for zone of inhibition at 20 µg/disc: Staphylococcus aureus, MRSA; for Kirby-Bauer Disc Diffusion Test Results: Table 5, beta-lactamase producing strain; for zone of growth inhibition, average diameter: Table 1, 6-mm disks, 20 μg test compound, 24 h, triplicate
In short: (§2)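 Agar disk diffusion against β-lactamase-producing MRSA clinical isolates, using 6-mm air-dried disks loaded with 20 μg test compound. Growth-inhibition zone diameter (mm) read after 24 h; values are means of triplicate experiments.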

MRSA USF652 = assay: Kirby-Bauer agar disk diffusion; format: cell-based, Staphylococcus aureus; design: Kirby-Bauer Disc Diffusion Test Results: unit not given here; settings: for zone of inhibition at 20 µg/disc: Staphylococcus aureus, MRSA; for Kirby-Bauer Disc Diffusion Test Results: Table 5, beta-lactamase producing strain; for zone of growth inhibition, average diameter: Table 1, 6-mm disks, 20 μg test compound, 24 h, triplicate
In short: as §2

MRSA USF659 = assay: Kirby-Bauer agar disk diffusion; format: cell-based, Staphylococcus aureus; design: Kirby-Bauer Disc Diffusion Test Results: unit not given here; settings: for zone of inhibition at 20 µg/disc: Staphylococcus aureus, MRSA; for Kirby-Bauer Disc Diffusion Test Results: Table 5, beta-lactamase producing strain; for zone of growth inhibition, average diameter: Table 1, 6-mm disks, 20 μg test compound, 24 h, triplicate
In short: as §2

MRSA USF655 = assay: Kirby-Bauer agar disk diffusion; format: cell-based, Staphylococcus aureus; design: Kirby-Bauer Disc Diffusion Test Results: unit not given here; settings: for zone of inhibition at 20 µg/disc: Staphylococcus aureus, MRSA; for Kirby-Bauer Disc Diffusion Test Results: Table 5; for zone of growth inhibition, average diameter: Table 1, 6-mm disks, 20 μg test compound, 24 h, triplicate
In short: as §2

MRSA USF654 = assay: Kirby-Bauer agar disk diffusion; format: cell-based, Staphylococcus aureus; design: Kirby-Bauer Disc Diffusion Test Results: unit not given here; settings: for zone of inhibition at 20 µg/disc: Staphylococcus aureus, MRSA; for Kirby-Bauer Disc Diffusion Test Results: Table 5, beta-lactamase producing strain; for zone of growth inhibition, average diameter: Table 1, 6-mm disks, 20 μg test compound, 24 h, triplicate
In short: as §2

MRSA USF656 = assay: Kirby-Bauer agar disk diffusion; format: cell-based, Staphylococcus aureus; design: Kirby-Bauer Disc Diffusion Test Results: unit not given here; settings: for zone of inhibition at 20 µg/disc: Staphylococcus aureus, MRSA; for Kirby-Bauer Disc Diffusion Test Results: Table 5, beta-lactamase producing strain; for zone of growth inhibition, average diameter: Table 1, 6-mm disks, 20 μg test compound, 24 h, triplicate
In short: as §2

MRSA USF653 = assay: Kirby-Bauer agar disk diffusion; format: cell-based, Staphylococcus aureus; design: Kirby-Bauer Disc Diffusion Test Results: unit not given here; settings: for zone of inhibition at 20 µg/disc: Staphylococcus aureus, MRSA; for Kirby-Bauer Disc Diffusion Test Results: Table 5, beta-lactamase producing strain; for zone of growth inhibition, average diameter: Table 1, 6-mm disks, 20 μg test compound, 24 h, triplicate
In short: as §2

MRSA USF657 = assay: Kirby-Bauer agar disk diffusion; format: cell-based, Staphylococcus aureus; design: Kirby-Bauer Disc Diffusion Test Results: unit not given here; settings: for zone of inhibition at 20 µg/disc: Staphylococcus aureus, MRSA; for Kirby-Bauer Disc Diffusion Test Results: Table 5, beta-lactamase producing strain; for zone of growth inhibition, average diameter: Table 1, 6-mm disks, 20 μg test compound, 24 h, triplicate
In short: as §2

Staph aureus 525 = assay: Kirby-Bauer agar disk diffusion; format: cell-based, Staphylococcus aureus; settings: Table 5
[2] = system: bacterial uptake of ^3H-uridine and ^3H-leucine; assay: pulse radiolabeling experiments; format: cell-based; settings: at low (MIC) levels
Source text: as §1

[3] = system: Staphylococcus epidermidis; assay: Kirby-Bauer agar disk diffusion; format: cell-based; settings: Table 1; 6-mm disks, 20 μg test compound, 24 h, triplicate
Procedure: (§3) In this study, a selection of N-methylthio-substituted β-lactams are examined for antimicrobial activity by the Kirby-Bauer disk diffusion method on agar plates. A variety of common Gram-positive and Gram-negative bacteria are tested, including clinical isolates of methicillin-resistant Staphylococcus aureus (MRSA).
(§4) Compound susceptibility measurements are obtained from agar disk diffusion experiments using 6-mm air-dried disks impregnated with 20 μg of the test compound. The values correspond to the average diameters in mm (triplicate experiments) for the zone of growth inhibition observed after 24 h. Staphylococcus aureus (ATCC 25923) and β-lactamase-producing strains of methicillin-resistant Staphylococcus aureus (labeled as MRSA USF652-659) are obtained from Lakeland Regional Medical Center, Lakeland, Fla. Staphylococcus epidermidis, Staphylococcus simulans, Staphylococcus simulans, and Microcossus luteus are clinical isolates from University of South Florida Medical Clinic. Nieserria gonnorhoeae (β-lactamase positive) is obtained from the Tampa Branch State Laboratory. PenG is penicillin G (potassium salt). Table 1 provides the zones of growth inhibition that are observed after 24 hours using the lactams of FIGS. 1A-1I (designated A-I, respectively).
(§5) Of particular interest is the ability of these compounds to retain their effectiveness against penicillin-resistant strains of Staphylococcus aureus, a dangerous hospital-borne pathogen which is becoming difficult to treat with conventional antibiotic therapy. The lactams were screened for antibacterial activity by disk diffusion on agar plates, and the resulting zones of bacterial growth inhibition measured (see Table 3; each lactam is designated by Figure number).
(§6) Table 3: Growth inhibition zones obtained from agar disk diffusion experiments using 6-mm air-dried disks impregnated with 20 μg of the test compound. The values correspond to the average diameters in mm for the zone of growth inhibition observed after 24 hours. Staphylococcus aureus and β-lactamase-producing strains of methicillin-resistant Staphylococcus aureus (labeled MRSA USF652-659) are obtained from a clinical testing laboratory at Lakeland Regional Medical Center, Lakeland, Fla.

[4] = system: Staphylococcus aureus (ATCC 25923); assay: Kirby-Bauer agar disk diffusion; format: cell-based; settings: Table 1; 6-mm disks, 20 μg test compound, 24 h, triplicate
Procedure: as §3, §4, §5, §6

Micrococcus luteus = assay: Kirby-Bauer agar disk diffusion; format: cell-based; settings: Table 1; 6-mm disks, 20 μg test compound, 24 h, triplicate
Procedure: as §3, §4, §5, §6

[5] = system: S. saprophyticus (ATCC 3552); assay: Kirby-Bauer agar disk diffusion; format: cell-based, Staphylococcus saprophyticus; settings: Table 1; 6-mm disks, 20 μg test compound, 24 h, triplicate
Procedure: as §3, §4, §5, §6

MRSA strains = assay: MIC by agar dilution; format: cell-based, Staphylococcus aureus
Source text: (§7) However, the N-alkylthio substituent is required, since reduction to the N—H analogue completely destroys the biological activity.

S. simulans (ATCC 11631) = assay: Kirby-Bauer agar disk diffusion; format: cell-based, Staphylococcus simulans; settings: Table 1; 6-mm disks, 20 μg test compound, 24 h, triplicate
Procedure: as §3, §4, §5, §6

N. gonorrhoeae = assay: Kirby-Bauer agar disk diffusion; format: cell-based, Neisseria gonorrhoeae; settings: Table 1; 6-mm disks, 20 μg test compound, 24 h, triplicate; β-lactamase positive
Procedure: as §3, §4

Staphylococcus aureus = assay: MIC by agar dilution; format: cell-based
Source text: as §7

[6] = read-out: The Zone of Inhibition

SMILES	coloration upon Gram staining (MRSA cells)	cells Gram-stained purple (MRSA cells)	Kirby-Bauer Disc Diffusion Test Results (MRSA USF658)	Kirby-Bauer Disc Diffusion Test Results (MRSA USF652)	Kirby-Bauer Disc Diffusion Test Results (MRSA USF659)	Kirby-Bauer Disc Diffusion Test Results (MRSA USF655)	Kirby-Bauer Disc Diffusion Test Results (MRSA USF654)	Kirby-Bauer Disc Diffusion Test Results (MRSA USF656)	Kirby-Bauer Disc Diffusion Test Results (MRSA USF653)	Kirby-Bauer Disc Diffusion Test Results (MRSA USF657)	zone of growth inhibition, average diameter [3] [mm]	zone of growth inhibition, average diameter [4] [mm]	zone of growth inhibition, average diameter (Micrococcus luteus) [mm]	zone of growth inhibition, average diameter [5] [mm]	zone of growth inhibition, average diameter (S. simulans (ATCC 11631)) [mm]	zone of growth inhibition, average diameter (N. gonorrhoeae) [mm]	zone of growth inhibition, average diameter (MRSA USF658) [mm]	zone of growth inhibition, average diameter (MRSA USF652) [mm]	zone of growth inhibition, average diameter (MRSA USF659) [mm]	zone of growth inhibition, average diameter (MRSA USF655) [mm]	also measured
CN[C@H](CC(C)C)C(=O)N[C@H]1C(=O)N[C@@H](CC(N)=O)C(=O)N[C@H]2C(=O)N[C@H]3C(=O)N[C@H](C(=O)N[C@H](C(=O)O)c4cc(O)cc(O)c4-c4cc3ccc4O)[C@H](O)c3ccc(c(Cl)c3)Oc3cc2cc(c3O[C@@H]2O[C@H](CO)[C@@H](O)[C@H](O)[C@H]2O[C@H]2C[C@](C)(N)[C@H](O)[C@H](C)O2)Oc2ccc(cc2Cl)[C@H]1O [Vancomycin, reference compound]	pink coloration	about 30%	18	19	18	19	19	21	18	18	–	–	–	–	–	–	–	–	–	–	cell morphology [1]: wrinkled, deformed, or even sheared; zone of inhibition at 20 µg/disc (MRSA USF658; [6]): 20 mm; zone of inhibition at 20 µg/disc (MRSA USF658; read-out: Zones of Inhibition): 18 mm; zone of inhibition at 20 µg/disc (MRSA USF652; [6]): 23 mm; zone of inhibition at 20 µg/disc (MRSA USF652; read-out: Zones of Inhibition): 19 mm; zone of inhibition at 20 µg/disc (MRSA USF659; [6]): 20 mm; zone of inhibition at 20 µg/disc (MRSA USF659; read-out: Zones of Inhibition): 18 mm; zone of inhibition at 20 µg/disc (MRSA USF655; [6]): 19 mm; zone of inhibition at 20 µg/disc (MRSA USF655; read-out: Zones of Inhibition): 19 mm; zone of inhibition at 20 µg/disc (MRSA USF654; [6]): 20 mm; zone of inhibition at 20 µg/disc (MRSA USF654; read-out: Zones of Inhibition): 19 mm; zone of inhibition at 20 µg/disc (MRSA USF656; [6]): 20 mm; zone of inhibition at 20 µg/disc (MRSA USF656; read-out: Zones of Inhibition): 21 mm; zone of inhibition at 20 µg/disc (MRSA USF653; [6]): 20 mm; zone of inhibition at 20 µg/disc (MRSA USF653; read-out: Zones of Inhibition): 18 mm; zone of inhibition at 20 µg/disc (MRSA USF657; [6]): 21 mm; zone of inhibition at 20 µg/disc (MRSA USF657; read-out: Zones of Inhibition): 18 mm
COC1C(=O)N(SC)C1c1ccccc1Cl (racemic) [FIG. 11F]	–	100%	28	30	27	26	26	26	30	28	–	–	–	–	–	–	–	–	–	–	Kirby-Bauer Disc Diffusion Test Results (Staph aureus 525): 26; cell counts ([1]; Example 5, cultures grown in the presence of the lactam): Highly reduced cell counts; alterations in the shapes or sizes of remaining cells ([1]; Example 5, light and scanning electron microscopy, range of concentrations and growth conditions): in no cases have we found alterations in the shapes or sizes
COC1C(=O)N(SC)C1c1ccccc1Cl (racemic) [Lactam D]	uniform purple coloration	–	–	–	–	–	–	–	–	–	29	26	24	20	16	19	27	30	24	26	bacterial uptake of ^3H-leucine [2]: blocks; bacterial uptake of ^3H-uridine [2]: blocks; Minimum inhibitory concentration (MIC) (MRSA strains): 5 to 10 µg/mL; cell morphology ([1]; listed as FIG. 1D): unaffected; also recorded: no visible damage or morphological deformities; zone of growth inhibition, average diameter (MRSA USF654): 26 mm; zone of growth inhibition, average diameter (MRSA USF656): 28 mm; zone of growth inhibition, average diameter (MRSA USF653): 30 mm; zone of growth inhibition, average diameter (MRSA USF657): 28 mm; Minimum inhibitory concentration (MIC) (Staphylococcus aureus): 15 µg/mL (≈ 58.2 µM)
COC(=O)c1ccc(C2C(OC)C(=O)N2SC)cc1 (racemic) [Lactam F]	–	–	–	–	–	–	–	–	–	–	12	12	20	8	0	11	12	12	13	14	zone of growth inhibition, average diameter (MRSA USF654): 12 mm; zone of growth inhibition, average diameter (MRSA USF656): 11 mm; zone of growth inhibition, average diameter (MRSA USF653): 14 mm; zone of growth inhibition, average diameter (MRSA USF657): 12 mm

— patent US6946458B2, “N-thiolated beta-lactams: novel antibacterial agents for methicillin-resistant Staphylococcus aureus” (University of South Florida, priority 1999, dated 2005)
